# Patent publication US11498928B2, “Macrocyclic spiroethers as Mcl-1 inhibitors” (ASCENTAGE PHARMA (SUZHOU) CO., LTD., priority 2019, dated 2022)
# Like-named read-outs stand apart in the source and are kept apart here.
# What was measured:
# [1] = molecular target: T1, Mcl-1 protein (residues 171-323) (Homo sapiens, UniProt Q07820); experiment: Inhibition of Mcl-1 by fluorescence polarization (FP) competitive binding assay with FAM-Bid tracer; details: 2 nM FAM-Bid, 20 nM Mcl-1, 30 min
# T1 construct: Tag-free Mcl-1 protein (residues 171-323) was used in the FP assay
# T1 sequence (Q07820 171-323): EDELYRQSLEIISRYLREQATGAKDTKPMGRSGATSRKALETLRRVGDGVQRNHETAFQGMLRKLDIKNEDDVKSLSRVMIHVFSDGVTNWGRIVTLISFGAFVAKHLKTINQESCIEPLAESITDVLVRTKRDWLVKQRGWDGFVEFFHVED
# Procedure: Inhibition of Mcl-1 by Fluorescence Polarization (FP) Assay.
# The relative binding potency of representative Compounds of the Disclosure was determined by a fluorescence polarization (FP) assay (Long et al, BMC Biotechnology 13:45 (2013)). The method used a fluorescein labelled peptide (FAM-Bid) which binds to the Mcl-1 protein leading to an increased anisotropy measured in milli-polarization (mP) values using a plate reader. […] Tag-free Mcl-1 protein (residues 171-323) was used in the FP assay (Mady et al, Scientific Reports 8: 10210-10210 (2018); Yang et al, ACS Med. Chem. Lett. 3:308-312 (2012)).
# A 10-points serial dilution of each compound was prepared in DMSO and 5 μL solution was transferred into flat bottomed, 96-well back plate (final DMSO concentration 5%). 120 μL of Buffer (PBS, 0.01% BGG (Sigma Cat. #SRE0011), 0.01% Triton X-100), containing the Fluorescein labelled peptide (Final concentration 2 nM) and Mcl-1 protein (final concentration 20 nM) was then added. Assay plates were incubated 30 mins at room temperature with gentle shaking before FP was measured on a Biotek Synergy 1MF reader (Ex. 485 nm, Em. 528 nm, Cut off 510 nm) and mP calculated. The binding of increasing doses of test compounds was expressed as a percentage reduction in mP compared to a window established between 5% DMSO only and 100% inhibition controls (no Mcl-1 protein). 10-points dose response curves were plotted with GraphPad software using Sigmoidal Dose-Response Model and the IC50 values were determined by nonlinear regression fitting of the competition curves. Cell Viability Assay (NCI-H929 cells)
# OPM-2 cells = experiment: Cell viability assay (OPM-2 cells), CCK-8; type: cell-based; details: 5% FBS
# Procedure: OPM-2 cells were obtained from Deutsche Sammlung von Mikroorganismen and Zellkulturen GmbH (DSMZ). Cells were maintained in the recommended culture medium with 10% FBS at 37° C. and an atmosphere of 5% CO2.
# The effect of representative Compounds of the Disclosure on cell viability was determined using Cell Counting Kit-8 (CCK-8) assay (Shanghai Life iLab Bio Technology) according to the manufacturer's instructions. Each tested compound was serially diluted in culture medium, 100 μL of the compound dilution was added into 96-well plates. 100 μL of an OPM-2 cell suspension (20000 cells/well) in culture medium were seeded into the corresponding well of the plate and the cells were incubated at 37° C. in an atmosphere of 5% CO2 for 24 hours. In the next day, 20 μL of CCK-8 solution was added to each well of the plate and incubated for 4 hours.
# The plates were read at 450 nm on the microplate spectrophotometer (SpectraMax plus 384, Molecular devices). The readings were normalized to the vehicle cells, and the IC50 was calculated by nonlinear regression analysis using GraphPad Prism 6 software.
# NCI-H929 cells = experiment: Cell viability assay (NCI-H929 cells), CCK-8; type: cell-based; details: 5% FBS
# Procedure: NCI-H929 cells were obtained from American Type Culture Collection (ATCC). Cells were maintained in the recommended culture medium (RPMI 1640) with 10% FBS and 0.05 mM BME at 37° C. and an atmosphere of 5% CO2.
# The effect of Compounds on cell viability was determined using Cell Counting Kit-8 (CCK-8) assay according to the manufacturer's instructions. 95 μL of NCI-H929 cell suspension (20000 cells/well) in culture medium were seeded into 96-well plates and cultured 4 hrs. Each tested compound was serially diluted in DMSO, then 5 μL of the compound or DMSO was diluted in 95 μL medium once more. At last, 5 μL of the compound dilution was added to the corresponding well of the cell plate. After the addition of the tested compound, the cells were incubated at 37° C. in an atmosphere of 5% CO2 for 24 hrs. At the end, 10 μL of CCK-8 solution was added to each well of the plate and incubated for 1-4 hours. The plates were read at 450 nm on the microplate reader (BioTek Synergy 1MF). The readings were normalized to the vehicle cells, and the IC50 was calculated by nonlinear regression analysis using GraphPad Prism 6 software. Cell Viability Assay (OPM-2 cells)
# [2] = Pharmacokinetic studies in mice (IV and PO); type: in vivo; details: for MRT last: read-out: MRT0-last
# Procedure: Administration: Mice in the IV group was dosed at 2 mg/kg (20% PEG 400+10% Cremophor EL+70% PBS 7.4) via tail vein injection (N=9). Mice in the PO group was dosed at 10 mg/kg (20% PEG 400+10% Cremophor EL+70% PBS 7.4) via oral gavage (N=9). All the mice were fasted overnight before dosing and had free access to food 4 hr post dosing.
# Sampling: The animal was restrained manually at the designated time points (0.083, 0.25, 0.5, 1, 2, 4, 6, 8 and 24 hr), approximately 110 μL of blood sample was collected via retro-orbital puncture or cardiac puncture for terminal bleeding under the anesthesia with Isoflurane inhalation into K2EDTA tubes. The blood samples were maintained in wet ice first and centrifuged to obtain plasma (2000 g, 4° C., 5 min) within 15 minutes post sampling. All the plasma samples were stored at approximately −70° C. until analysis.
Compound,IC50 [1] [µM],"IC50 (OPM-2 cells; Homo sapiens, OPM-2, 24 h) [µM]","IC50 (NCI-H929 cells; Homo sapiens, NCI-H929, 24 h) [µM]",other results
"CC(=O)N1CCN(CCO[C@H]2C3=C[C@@H](C3)[C@H](C)[C@@H](C)S(=O)(=O)NC(=O)c3ccc4c(c3)N(C[C@@H]3CC[C@H]32)C[C@@]2(CCCc3c2ccc(Cl)c3F)CO4)CC1 [compound 87, (1S,11′R,12′S,13′R,16′R,16a′R,18a′R,E)-16′-(2-(4-acetylpiperazin-1-yl)ethoxy)-6-chloro-5-fluoro-11′,12′-dimethyl-3,4,12′,13′,16′,16a′,17′,18′,18a′,19′-decahydro-1′H,2H,3′H, 11′H-spiro[naphthalene-1,2′-[5,7]etheno[13,15]methanocyclobuta[i][1,4]oxazepino[3,4-f][1]thia[2,7]diazacyclohexadecin]-8′(9′H)-one 10′,10′-dioxide]",0.0085,0.369,0.027,–
"CCO[C@@]1(CN2CCN3CCOC[C@H]3C2)C2=C[C@@H](C2)[C@H](C)[C@@H](C)S(=O)(=O)NC(=O)c2ccc3c(c2)N(C[C@@H]2CC[C@H]21)C[C@@]1(CCCc2c1ccc(Cl)c2F)CO3 [compound 45, (1S,11′R,12′S,13′R,16′R,16a′R,18a′R,E)-6-chloro-16′-ethoxy-5-fluoro-16′-(((R)-hexahydropyrazino[2,1-c][1,4]oxazin-8(1H)-yl)methyl)-11′,12′-dimethyl-3,4,12,′13′,16′,16a′,17′,18′,18a′,19′-decahydro-1′H,2H,3′H,11′H-spiro[naphthalene-1,2′-[5,7]etheno[13,15]methanocyclobuta[i][1,4]oxazepino[3,4-f][1]thia[2,7]diazacyclohexadecin]-8′(9′H)-one 10′,10′-dioxide]",0.015,0.105,0.046,–
"C[C@@H]1[C@@H](C)S(=O)(=O)NC(=O)c2ccc3c(c2)N(C[C@@H]2CC[C@H]2[C@@H](OCCN2C[C@@H](C)N(C)[C@@H](C)C2)C2=C[C@H]1C2)C[C@@]1(CCCc2c1ccc(Cl)c2F)CO3 [compound 84, (1S,11′R,12′S,13′R,16′R,16a′R,18a′R,E)-6-chloro-5-fluoro-11′,12′-dimethyl-16′-(2-((3 S,5R)-3,4,5-trimethylpiperazin-1-yl)ethoxy)-3,4,12′,13′,16′,16a′,17′,18′,18a′,19′-decahydro-1′H,2H,3′H, 11′H-spiro[naphthalene-1,2′-[5,7]etheno[13,15]methanocyclobuta[i][1,4]oxazepino[3,4-f][1]thia[2,7]diazacyclohexadecin]-8′(9′H)-one 10′,10′-dioxide]",0.02,0.065,0.076,–
"CO[C@H]1C2=C[C@@H](C2)[C@H](C)CS(=O)(=O)NC(=O)c2ccc3c(c2)N(C[C@@H]2CC[C@H]21)C[C@@]1(CCCc2c1ccc(Cl)c2F)CS3 (single isomer, unassigned) [24 (isomer 1)]",0.0064,0.67,0.66,–
"CO[C@@H]1C2=CC(C2)[C@H](C)N(C)S(=O)(=O)NC(=O)c2ccc3c(c2)N(C[C@@H]2CC[C@H]21)C[C@@]1(CCCc2cc(Cl)ccc21)CO3 (single isomer, unassigned) [27 (isomer 1)]",0.013,–,–,IC50 (OPM-2 cells; 24 h): 1.44 µM; IC50 (NCI-H929 cells; 24 h): 1.6 µM
"CO[C@H]1C2=CC(C2)[C@@H](C)[C@H](C)S(=O)(=O)NC(=O)c2ccc3c(c2)N(C[C@@H]2CC[C@H]21)C[C@@]1(CCCc2cc(Cl)ccc21)CO3 (single isomer, unassigned) [12 (Isomer 2)]",0.015,–,–,IC50 (OPM-2 cells; 24 h): 12.3 µM; IC50 (NCI-H929 cells; 24 h): 4.6 µM
"CO[C@H]1C2=CC(C2)[C@H](C)[C@@H](C)S(=O)(=O)NC(=O)c2ccc3c(c2)N(C[C@@H]2CC[C@H]21)C[C@@]1(CCCc2c1cc(F)c(Cl)c2F)CO3 (single isomer, unassigned) [Cpd. No. 19]",0.019,0.802,0.67,–
CO[C@@]1(CN2CCN(C3COC3)CC2)C2=C[C@@H](C2)[C@H](C)[C@@H](C)S(=O)(=O)NC(=O)c2ccc3c(c2)N(C[C@@H]2CC[C@H]21)C[C@@]1(CCCc2c1ccc(Cl)c2F)CO3 [compound 50],0.011,0.028,0.011,–
"CO[C@@]1(CN2CCC(N3CCOCC3)CC2)C2=C[C@@H](C2)[C@H](C)[C@@H](C)S(=O)(=O)NC(=O)c2ccc3c(c2)N(C[C@@H]2CC[C@H]21)C[C@@]1(CCCc2c1ccc(Cl)c2F)CO3 [compound 37, (1S,11′R,12′S,13′R,16′R,16a′R,18a′R,E)-6-chloro-5-fluoro-16′-methoxy-11′,12′-dimethyl-16′-((4-morpholinopiperidin-1-yl)methyl)-3,4,12′,13′,16′,16a′,17′,18′,18a′,19′-decahydro-1′H,2H,3′H, 11′H-spiro[naphthalene-1,2′-[5,7]etheno[13,15]methanocyclobuta[i][1,4]oxazepino[3,4-f][1]thia[2,7]diazacyclohexadecin]-8′(9′H)-one 10′,10′-dioxide]",0.017,0.063,0.012,–
"CO[C@H]1/C=C/C[C@H](C)[C@@H](C)S(=O)(=O)NC(=O)c2ccc3c(c2)N(C[C@@H]2CC[C@H]21)C[C@@]1(CCCc2cc(Cl)ccc21)CO3 [AMG-176, reference compound]",–,0.335,0.138,"F ([2]; PO 10 mg/kg vs IV 2 mg/kg): 97.9%; AUC(0-inf) ([2]; mouse, plasma, IV 2 mg/kg): 7450 ng·h/mL; AUC(0-t) ([2]; mouse, plasma, IV 2 mg/kg): 6800 ng·h/mL; clearance ([2]; mouse, plasma, IV 2 mg/kg): 4.5 mL/min/kg; half-life ([2]; mouse, plasma, IV 2 mg/kg): 7.2 h; Cmax ([2]; mouse, plasma, IV 2 mg/kg, read-out: C0/Cmax (C0)): 1550 ng/mL; MRT last ([2]; mouse, plasma, IV 2 mg/kg): 6.3 h; Vd ([2]; mouse, plasma, IV 2 mg/kg, read-out: Vss): 2.3 L/kg; AUC(0-inf) ([2]; mouse, plasma, PO 10 mg/kg): 36500 ng·h/mL; AUC(0-t) ([2]; mouse, plasma, PO 10 mg/kg): 32700 ng·h/mL; Tmax ([2]; mouse, plasma, PO 10 mg/kg): 1 h; half-life ([2]; mouse, plasma, PO 10 mg/kg): 7.4 h; Cmax ([2]; mouse, plasma, PO 10 mg/kg, read-out: C0/Cmax (Cmax)): 2500 ng/mL; MRT last ([2]; mouse, plasma, PO 10 mg/kg): 7.4 h; Vd/F ([2]; mouse, plasma, PO 10 mg/kg, read-out: Vz/F): 2.9 L/kg"
CO[C@H]1C2CC(CCS(=O)(=O)NC(=O)c3ccc4c(c3)N(C[C@@H]3CC[C@H]31)C[C@@]1(CCCc3cc(Cl)ccc31)CO4)C2 [compound 2],–,0.01,0.00604,–
